Experimental data reported in ChEMBL document CHEMBL5291721, “A preclinical secondary pharmacology resource illuminates target-adverse drug reaction associations of marketed drugs” (Nat Commun, 2023).
Values joined by “and” are separate entries in the source; they are usually repeats but may differ in a detail not shown here. Identical values can stand only once.

How the values were obtained:
[1] = target: T1, Neuropeptide Y receptor type 1 (Homo sapiens, UniProt P25929)
T1 sequence (P25929 whole entry): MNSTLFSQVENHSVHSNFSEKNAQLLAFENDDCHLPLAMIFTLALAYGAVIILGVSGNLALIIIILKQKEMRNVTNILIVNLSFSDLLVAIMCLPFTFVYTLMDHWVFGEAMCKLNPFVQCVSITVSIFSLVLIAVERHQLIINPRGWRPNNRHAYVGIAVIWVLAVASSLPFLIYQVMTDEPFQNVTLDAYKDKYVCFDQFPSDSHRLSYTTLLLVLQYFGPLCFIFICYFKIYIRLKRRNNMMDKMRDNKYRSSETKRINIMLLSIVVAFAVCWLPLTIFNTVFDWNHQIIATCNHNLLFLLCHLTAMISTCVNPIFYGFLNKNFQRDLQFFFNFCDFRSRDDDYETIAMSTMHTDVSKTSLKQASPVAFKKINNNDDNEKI

[2] = target: T2, Prostaglandin G/H synthase 1 (Rattus norvegicus, UniProt Q63921); assay type: functional
T2 sequence (Q63921 whole entry): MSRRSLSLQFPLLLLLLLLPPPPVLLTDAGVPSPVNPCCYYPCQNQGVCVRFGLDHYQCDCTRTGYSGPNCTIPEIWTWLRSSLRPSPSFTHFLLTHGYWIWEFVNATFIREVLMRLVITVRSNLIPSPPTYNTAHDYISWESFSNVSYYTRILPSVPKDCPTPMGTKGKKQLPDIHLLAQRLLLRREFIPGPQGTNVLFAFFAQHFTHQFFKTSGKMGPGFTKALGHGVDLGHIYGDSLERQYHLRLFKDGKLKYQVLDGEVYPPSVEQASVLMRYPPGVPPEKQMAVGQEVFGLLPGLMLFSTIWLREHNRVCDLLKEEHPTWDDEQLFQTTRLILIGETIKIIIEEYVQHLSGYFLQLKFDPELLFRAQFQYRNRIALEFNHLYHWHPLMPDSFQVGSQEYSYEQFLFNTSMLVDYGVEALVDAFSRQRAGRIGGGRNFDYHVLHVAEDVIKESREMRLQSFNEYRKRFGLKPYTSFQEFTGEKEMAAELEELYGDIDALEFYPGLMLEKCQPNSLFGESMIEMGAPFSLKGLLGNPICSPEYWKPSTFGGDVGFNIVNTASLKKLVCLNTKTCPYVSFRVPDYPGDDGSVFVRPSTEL

[3] = target: T3, Alpha-1A adrenergic receptor (Homo sapiens, UniProt P35348); assay type: functional, cell-based
T3 sequence (P35348 whole entry): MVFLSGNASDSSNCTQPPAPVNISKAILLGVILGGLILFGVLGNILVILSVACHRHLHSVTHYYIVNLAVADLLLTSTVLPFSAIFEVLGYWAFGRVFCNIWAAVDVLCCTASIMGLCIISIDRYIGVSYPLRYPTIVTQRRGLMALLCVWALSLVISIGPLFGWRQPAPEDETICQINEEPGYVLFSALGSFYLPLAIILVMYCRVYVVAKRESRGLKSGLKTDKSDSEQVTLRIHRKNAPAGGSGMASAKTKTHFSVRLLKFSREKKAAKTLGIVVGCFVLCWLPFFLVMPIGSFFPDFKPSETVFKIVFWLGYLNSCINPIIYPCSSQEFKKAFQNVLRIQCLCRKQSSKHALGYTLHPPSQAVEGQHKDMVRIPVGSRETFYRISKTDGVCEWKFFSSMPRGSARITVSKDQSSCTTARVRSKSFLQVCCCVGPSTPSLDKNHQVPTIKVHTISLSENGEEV

D(1A) dopamine receptor = D(1A) dopamine receptor (Homo sapiens, UniProt P21728); assay type: functional, cell-based
Melanocortin receptor 3 = Melanocortin receptor 3 (Homo sapiens, UniProt P41968)
[4] = target: T4, Alpha-2C adrenergic receptor (Homo sapiens, UniProt P18825); assay type: functional
T4 sequence (P18825 whole entry): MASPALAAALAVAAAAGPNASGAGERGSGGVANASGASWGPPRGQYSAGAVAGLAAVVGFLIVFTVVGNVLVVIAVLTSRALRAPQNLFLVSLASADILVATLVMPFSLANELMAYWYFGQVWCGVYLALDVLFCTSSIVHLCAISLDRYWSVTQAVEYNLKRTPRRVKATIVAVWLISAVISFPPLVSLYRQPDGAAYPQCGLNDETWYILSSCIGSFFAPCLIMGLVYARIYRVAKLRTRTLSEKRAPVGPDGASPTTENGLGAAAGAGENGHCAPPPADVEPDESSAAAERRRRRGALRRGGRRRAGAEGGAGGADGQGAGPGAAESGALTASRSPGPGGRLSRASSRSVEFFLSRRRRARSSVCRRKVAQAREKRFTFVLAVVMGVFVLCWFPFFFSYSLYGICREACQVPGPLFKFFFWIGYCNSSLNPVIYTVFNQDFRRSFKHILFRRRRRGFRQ

[5] = target: Kappa-type opioid receptor (Homo sapiens, UniProt P41145)
[6] = target: Sodium-dependent dopamine transporter (Homo sapiens, UniProt Q01959)
Note: assay procedure not described here.

Sequence of D(1A) dopamine receptor (P21728 whole entry): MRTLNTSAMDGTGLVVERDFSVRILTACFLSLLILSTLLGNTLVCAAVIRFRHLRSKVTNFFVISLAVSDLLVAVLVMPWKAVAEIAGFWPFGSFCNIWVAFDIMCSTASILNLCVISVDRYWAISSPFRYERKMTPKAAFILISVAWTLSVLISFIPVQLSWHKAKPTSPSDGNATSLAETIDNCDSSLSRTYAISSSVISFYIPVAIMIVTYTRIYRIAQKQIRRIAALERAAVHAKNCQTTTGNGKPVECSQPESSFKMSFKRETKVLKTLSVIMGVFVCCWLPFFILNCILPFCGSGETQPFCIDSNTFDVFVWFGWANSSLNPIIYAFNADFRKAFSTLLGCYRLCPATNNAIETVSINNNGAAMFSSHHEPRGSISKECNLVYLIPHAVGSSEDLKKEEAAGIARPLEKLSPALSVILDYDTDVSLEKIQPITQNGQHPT
Sequence of Kappa-type opioid receptor (P41145 whole entry): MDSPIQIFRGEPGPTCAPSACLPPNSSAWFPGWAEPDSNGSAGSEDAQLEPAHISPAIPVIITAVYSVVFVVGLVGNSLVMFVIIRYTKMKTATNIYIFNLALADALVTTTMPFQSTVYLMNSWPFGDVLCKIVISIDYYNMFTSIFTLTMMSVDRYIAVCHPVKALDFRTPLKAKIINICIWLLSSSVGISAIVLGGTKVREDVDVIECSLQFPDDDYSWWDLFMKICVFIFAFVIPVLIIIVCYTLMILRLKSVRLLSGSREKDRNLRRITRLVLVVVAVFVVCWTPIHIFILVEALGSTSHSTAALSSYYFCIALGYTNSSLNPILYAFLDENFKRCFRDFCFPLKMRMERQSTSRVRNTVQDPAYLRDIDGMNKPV
Sequence of Sodium-dependent dopamine transporter (Q01959 whole entry): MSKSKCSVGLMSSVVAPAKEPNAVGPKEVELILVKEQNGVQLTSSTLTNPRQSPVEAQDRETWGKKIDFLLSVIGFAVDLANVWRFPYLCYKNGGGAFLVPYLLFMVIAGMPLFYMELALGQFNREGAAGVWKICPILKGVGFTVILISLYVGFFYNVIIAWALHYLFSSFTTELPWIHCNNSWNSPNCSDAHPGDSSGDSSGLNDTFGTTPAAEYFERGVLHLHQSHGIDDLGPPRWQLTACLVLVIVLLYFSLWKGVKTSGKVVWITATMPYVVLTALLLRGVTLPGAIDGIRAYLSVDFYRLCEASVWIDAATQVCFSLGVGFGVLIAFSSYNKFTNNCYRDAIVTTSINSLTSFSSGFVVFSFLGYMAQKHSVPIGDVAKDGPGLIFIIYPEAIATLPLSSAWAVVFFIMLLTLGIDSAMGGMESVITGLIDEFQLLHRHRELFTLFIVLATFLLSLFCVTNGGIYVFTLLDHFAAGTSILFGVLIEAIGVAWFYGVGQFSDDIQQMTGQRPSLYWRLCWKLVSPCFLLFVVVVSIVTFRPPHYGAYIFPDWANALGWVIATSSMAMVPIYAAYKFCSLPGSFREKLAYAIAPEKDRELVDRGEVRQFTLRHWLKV
Sequence of Melanocortin receptor 3 (P41968 whole entry): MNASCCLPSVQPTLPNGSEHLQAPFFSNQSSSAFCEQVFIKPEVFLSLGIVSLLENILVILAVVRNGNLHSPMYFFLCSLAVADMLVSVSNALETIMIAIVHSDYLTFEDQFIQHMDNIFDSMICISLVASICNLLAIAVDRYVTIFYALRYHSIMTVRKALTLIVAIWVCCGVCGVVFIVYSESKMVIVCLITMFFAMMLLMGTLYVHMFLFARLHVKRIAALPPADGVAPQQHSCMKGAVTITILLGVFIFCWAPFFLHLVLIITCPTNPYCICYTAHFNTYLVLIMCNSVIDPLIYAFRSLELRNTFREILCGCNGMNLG

SMILES | AC50 ([1]; read-out: AC50) [µM] | AC50 [2] [µM] | AC50 (D(1A) dopamine receptor) [µM] | AC50 (Melanocortin receptor 3) [µM] | AC50 [4] [µM] | AC50 [5] [µM] | AC50 [6] | AC50 [1] [µM] | AC50 [3] [µM]
C=CC[C@@H]1/C=C(\C)C[C@H](C)C[C@H](OC)[C@H]2O[C@@](O)(C(=O)C(=O)N3CCCC[C@H]3C(=O)O[C@H](/C(C)=C/[C@@H]3CC[C@@H](O)[C@H](OC)C3)[C@H](C)[C@@H](O)CC1=O)[C@H](C)C[C@@H]2OC [TACROLIMUS ANHYDROUS] | > 30 | > 30 | > 30 | > 30 | > 30 | > 10 | 19.6 µM and > 10 µM | – | > 30
CC(S)C(=O)NCC(=O)O (stereo not drawn) [TIOPRONIN] | – | 3.3 | > 30 | > 30 | > 30 | – | > 30 µM | – | > 30
CCN1CCN(Cc2ccc(Nc3ncc(F)c(-c4cc(F)c5nc(C)n(C(C)C)c5c4)n3)nc2)CC1 [ABEMACICLIB] | – | > 30 | > 30 | > 30 | > 30 | – | > 30 µM | – | > 30
CN1C(C(=O)Nc2ccccn2)=C(O)c2ccccc2S1(=O)=O [PIROXICAM] | > 10 | – | > 10 | > 10 | > 30 | > 10 | > 10 µM | – | –
CCCC(CCC)C(=O)O [VALPROIC ACID] | > 30 | > 30 | > 10 | > 30 | > 10 | > 10 | 4.97 µM | – | –
OC[C@H]1O[C@@](CO)(O[C@H]2O[C@H](CO)[C@@H](O)[C@H](O)[C@H]2O)[C@@H](O)[C@@H]1O [SUCROSE] | > 30 | > 30 | > 30 | > 30 | – | > 30 | > 30 µM | – | > 30
CC(C)(C)NCC(O)c1cc(O)cc(O)c1 (stereo not drawn) [TERBUTALINE] | > 30 | > 30 | – | > 30 | – | – | > 30 µM | – | –
CCN(CC)CCNC(=O)c1c(C)[nH]c(/C=C2\C(=O)Nc3ccc(F)cc32)c1C [SUNITINIB] | – | > 30 | – | 7.8 | 1.77 | 10.3 | – | 6.9 | –

More lines, main results first:

AC50 ([1]; read-out: AC50) [µM] | AC50 [2] [µM] | AC50 (D(1A) dopamine receptor) [µM] | AC50 (Melanocortin receptor 3) [µM] | AC50 [4] [µM] | AC50 [5] [µM] | AC50 [6] | AC50 [1] [µM] | SMILES | AC50 [3] [µM]
> 30 | > 30 | > 30 | > 30 | > 30 | 12 | – | – | CN(C)CC[C@@H](c1ccc(Cl)cc1)c1ccccn1 [DEXCHLORPHENIRAMINE] | > 30
> 10 | > 30 | > 10 | > 30 | > 10 | > 10 | > 30 µM | – | CC(C(=O)O)c1ccc2c(c1)[nH]c1ccc(Cl)cc12 (stereo not drawn) [CARPROFEN] | –
8.44 | 8.2 | > 30 | 19.9 | 1.2 | – | 7.8 µM | – | C[C@@H](Oc1cc(-c2cnn(C3CCNCC3)c2)cnc1N)c1c(Cl)ccc(F)c1Cl [CRIZOTINIB] | –
> 10 | > 10 | > 10 | > 10 | > 10 | > 10 | > 10 µM | – | O=C1CN(/N=C/c2ccc(-c3ccc([N+](=O)[O-])cc3)o2)C(O)=N1 [DANTROLENE] | –
> 30 | > 30 | > 10 | > 30 | 18 | 4 | 9.56 µM | – | C=C[C@H]1C[N@@]2CC[C@H]1C[C@@H]2[C@@H](O)c1ccnc2ccc(OC)cc12 [QUINIDINE] | –
